Laboratory results published in ChEMBL document CHEMBL1144125, “Excavatolides U-Z, new briarane diterpenes from the gorgonian briareum excavatum” (1999).
Values after ≈ are worked out from the molar mass of the structure shown.

Columns and labels:
Assay type in all cases: functional
Details in all cases: read-out: ED50 (the source's name)
P388 = experiment: Cytotoxicity against mouse P388 cells
HT-29 = experiment: Cytotoxicity against human HT-29 cells
A549 = experiment: Cytotoxicity against human A549 cells
KB = experiment: Cytotoxicity against human KB cells

Row | SMILES | EC50 (P388) [µg/mL] | EC50 (HT-29) [µg/mL] | EC50 (A549) [µg/mL] | EC50 (KB) [µg/mL]
1 | CCCC(=O)O[C@@H]1C=C[C@]2(C)[C@H](OC(C)=O)C[C@@H](OC(C)=O)/C(C)=C\[C@@H]3OC(=O)[C@@]4(C)O[C@]34[C@H](OC(C)=O)[C@H]2[C@@]1(C)O | > 50 | > 50 | > 50 | > 50
2 | CCC(=O)O[C@@H]1C[C@@H](OC(C)=O)[C@@]2(C)C=C[C@@H](OC(C)=O)[C@](C)(O)[C@@H]2[C@@H](OC(C)=O)[C@]23O[C@]2(C)C(=O)O[C@H]3/C=C\1C | 9.5 (≈ 16.4 µM) | 15.1 (≈ 26.1 µM) | > 50 | > 50
3 | CCCC(=O)O[C@H]1C/C(C)=C\[C@@H]2OC(=O)[C@@]3(C)O[C@]23[C@H](OC(C)=O)[C@H]2[C@@H](C)[C@@H](OC(=O)CC)C[C@H](OC(C)=O)[C@]2(C)[C@@H]1OC(C)=O [EXCAVATOLIDE U] | > 50 | > 50 | > 50 | > 50
4 | CCC(=O)O[C@H]1C[C@H](OC(C)=O)[C@@]2(C)[C@H]([C@H]1C)[C@@H](OC(C)=O)[C@]13O[C@]1(C)C(=O)O[C@H]3/C=C(/C)C[C@H](OC(C)=O)[C@H]2OC(C)=O [EXCAVATOLIDE V] | 3.9 (≈ 6.26 µM) | 20.4 (≈ 32.8 µM) | 19.1 (≈ 30.7 µM) | 7 (≈ 11.2 µM)
5 | CCC(=O)O[C@H]1C[C@H](OC(C)=O)[C@@]2(C)[C@H]([C@H]1C)[C@@H](O)[C@]13O[C@]1(C)C(=O)O[C@H]3/C=C(/C)CC[C@H]2OC(C)=O [EXCAVATOLIDE W] | 19.4 (≈ 37.1 µM) | > 50 | > 50 | > 50
